Experimental data taken from US20250295790A1, “LECTIN-TARGETING CONJUGATES” (Helmholtz-Zentrum für Infektionsforschung GmbH, priority 2021, published 2025).

Tests used:
LecB PAO1 = LecB PAO1 (Pseudomonas aeruginosa, UniProt Q9HYN5); format: binding; conditions: target LecB PAO1
Method: LecB (LecB PAO1 according to Hauck et al. and LecB PA14 according to Sommer et al.): A serial dilution of the test compounds was prepared in TBS/Ca, with 20% DMSO as cosolvent. […] Fluorescence was measured and analysed as for LecA. Bottom and top plateaus were fixed according to the control compound in each assay (1-fucose) and the data was re-analysed with these values fixed. A minimum of three independent measurements on three plates was performed for each inhibitor.

A549 cells = experiment: Cytotoxicity assay (MTT); format: cell-based, human; conditions: 24 h
Excerpt: Then supernatant was transferred to a 96-well-plate. […] The experiment was repeated at least three times. The error bars indicate the standard deviation.

[1] = format: in vitro ADME
Method: Each compound dissolved in DMSO was added to mouse plasma (pH 7.4, 37° C.) or to human plasma (pH 7.4, 37° C.) to yield a final concentration of 1 μM. In addition, procaine and procainamide (dissolved in DMSO) were added to mouse plasma or to human plasma (pH 7.4, 37° C.) to yield a final concentration of 1 μM. Procaine served as positive control as it is unstable in mouse plasma. Procainamide served as negative control as it is stable in mouse plasma. The samples were incubated for 0 min, 15 min, 30 min, 60 min, 90 min, 120 min and 240 min at 37° C. At each time point, 10 μl of the respective sample was extracted with 90 l acetonitrile and 1 μl of caffeine as internal standard for 5 min at 2000 rpm on a MixMate® vortex mixer (Eppendorf). Acetonitrile and caffeine were dispensed using a Mantis Formulatrix®. The samples were centrifuged for 20 min at 2270 ref at 4° C. and the supernatants were transferred to 96-well Greiner V-bottom plates. Samples were analysed using HPLC-MS/MS analysis as described in the respective section. Peak areas of each compound and of the internal standard were analysed using the MultiQuant 3.0 software (AB Sciex). […]
Cell samples as well as plasma stability, plasma protein binding and metabolic stability samples were analysed using an Agilent 1290 Infinity II coupled to an AB Sciex 6500plus mass spec-trometer. […]

Chain of LecB PAO1 (Q9HYN5 entry or part of it): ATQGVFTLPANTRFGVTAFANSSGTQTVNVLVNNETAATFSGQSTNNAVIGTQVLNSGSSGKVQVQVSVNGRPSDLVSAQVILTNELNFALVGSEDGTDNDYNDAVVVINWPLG

**Q.** With `CC(C)CC(NC(=O)CNC(=O)C(C)NC(=O)c1ccc(S(=O)(=O)NCC2OC(C)C(O)C(O)C2O)cc1)C(=O)NC(C)C(=O)NC1CCN(c2cc3c(cc2F)c(=O)c(C(=O)O)cn3C2CC2)C1` (stereo not drawn) [Compound 37] as the molecule, how does the IC50 (LecB PAO1) read?
**A.** 3.59 ± 1.92 µM

**Q.** What about the “IC50 ± s.d.” value (LecB PAO1) of the same molecule?
**A.** one-digit micromolar range

**Q.** What about the Ki (LecB PAO1; calculated as Ki from IC50, read-out: Ki ± s.d.) of the same molecule?
**A.** 1.43 ± 0.9 µM

**Q.** What about the IC50 (A549 cells) of the same molecule?
**A.** > 50 µM

**Q.** What about the “plasma stability, t1/2 human” value [1] of the same molecule?
**A.** 2.25 h

**Q.** And the “plasma stability, t1/2 mouse” value [1]?
**A.** 1.23 h
